According to patent US11723890B2, “Methods of treatment using an mTORC1 modulator” (Navitor Pharmaceuticals, Inc., priority 2019, dated 2023):
Like-named read-outs stand apart in the source and are kept apart here. Marks after values point to notes of the source that are not given here.

Key:
rat = assay: Single oral dose toxicology study in rat; assay type: in vivo
Experimental: Nonclinical toxicology studies have been performed with compound A in the rat and cynomolgus monkey. Adverse effects were not observed after single oral doses of up to 500 mg/kg in rat and up to 2000 mg/kg in cynomolgus monkey.

[1] = tested on: CSF neurotransmitter metabolites; assay: Example 2: CSF neurotransmitter metabolomics after a single dose; assay type: in vivo, human; conditions: healthy males; for 1-methyl-4-imidazoleacetate, CSF, ratio relative to baseline / Carboxyethyl-GABA, CSF, ratio relative to baseline / Homovanillate (HVA), CSF, ratio relative to baseline / Hydroxyindoleacetic acid (HIAA), CSF, ratio relative to baseline: single 2400 mg, n = 12
Text: Exploratory Objective(s): The exploratory objectives of this study were as follows using CSF and plasma samples collected over the same time frame as the PK samples: • conducted unbiased metabolomic analysis using validated methods as described: https://www.metabolon.com/what-we-do/our-technology. • conducted unbiased proteomic analysis using validated methods as described: https://www.biognosys.com/technology. Study Endpoints:
This study was a Phase 1, double-blind, placebo-controlled, single-dose study to evaluate the PK, metabolomic, and proteomic profiles of compound A in plasma and CSF in healthy male subjects between the ages of 18 and 55 years. […] Once eligibility criteria were met and the ICF had been signed, subjects were admitted to the CRU on Day-1. On Day 1, intradural and venous catheters were inserted and subjects were randomly assigned to double-blind treatment with a single oral 2400 mg dose of compound A or placebo. The catheter insertion site was assessed on regular basis for early signs of local infection or CSF leakage. Time-matched CSF and blood samples were then collected for 36 hours, after which, the intradural and venous catheters were removed. See FIG. 7 for the study flow chart.
Pharmacokinetic, Metabolomic, and Proteomic Variables: Blood and CSF samples for the PK, metabolomics, and proteomic analysis of compound A were collected at various time points and were processed and analyzed by a validated method for determining concentrations of compound A.
Low CSF concentrations of HVA have been reported to be a marker of depressive symptoms. […] Values represent the ratio of metabolite concentrations for each time point relative to baseline. An increase from baseline is indicated with a single asterisk (*).

[2] = Example 3: plasma pharmacokinetics of two sequential doses; assay type: in vivo, human; conditions: for Tmax / AUC / AUC(0-t) / Cmax / half-life: male, human, 2400 mg
Experimental: Up to approximately 24 healthy male volunteers were randomly assigned (1:1) to double-blind treatment with either compound A 2400 mg or placebo. Each subject received one dose of either 2400 mg compound A or placebo on Day 1 and a second dose of the same treatment on Day 3.
The initial dose of double-blind treatment was administered between 7:00 AM and 10:00 AM on Day 1. The second (Day 3) dose was given 48 hours ±30 minutes following the first (Day 1) dose. Predose assessments were performed up to 120 minutes prior to dosing on Day 1 and Day 3, except for the predose dECG, which was performed within 30 minutes prior to dosing on both Day 1 and Day 3, the predose qEEG and ERP, which was performed within 60 minutes prior to dosing on Day 1 and Day 3, and the predose PK blood draw, which was performed within 15 minutes prior to dosing on Day 3.
Pharmacodynamics were assessed via qEEG and event-related potential (ERP). Frequent PK sampling was included in the study to evaluate the PK of two doses of compound A given approximately 48 hours apart. A PK/PD model was developed that measures qEEG and ERP changes as a function of plasma concentration of compound A as well as determines whether there are any PK/PD differences between Dose 1 and Dose 2 effects.
Subjects were required to refrain from eating or drinking from 2 hours prior to dose administration until two hours after dose administration.

[3] = healthy males, 2400 mg oral, Day 1, N 11
[4] = healthy males, 2400 mg oral, second dose, Day 3, N 11

SMILES: CC(C)(C[C@H](N)C(=O)O)C(F)F [Compound A, (S)-2-amino-5,5-difluoro-4,4-dimethylpentanoic acid]
- finding after single oral dose (rat; in vivo, po, 2000 mg/kg): ataxia was noted
- time by which ataxia resolved (rat; in vivo, po, 2000 mg/kg): ≤ 24 h
- single oral dose up to which adverse effects were not observed (rat; single oral dose): up to 500 mg/kg
- onset of effect on key neurotransmitter turnover (GABA, histamine, serotonin, dopamine) ([1]; CSF, single oral 2400 mg): within two hours of treatment
- duration of effect on key neurotransmitter turnover ([1]; CSF, single oral 2400 mg, post-dose): 36 h
- 1-methyl-4-imidazoleacetate, CSF, ratio relative to baseline ([1]; 1 h post-dose): 1.08
- Carboxyethyl-GABA, CSF, ratio relative to baseline ([1]; 1 h post-dose): 1.12
- Homovanillate (HVA), CSF, ratio relative to baseline ([1]; 1 h post-dose): 1.08
- Hydroxyindoleacetic acid (HIAA), CSF, ratio relative to baseline ([1]; 1 h post-dose): 1.09
- 1-methyl-4-imidazoleacetate, CSF, ratio relative to baseline ([1]; 2 h post-dose): 1.35*
- Carboxyethyl-GABA, CSF, ratio relative to baseline ([1]; 2 h post-dose): 1.29*
- Homovanillate (HVA), CSF, ratio relative to baseline ([1]; 2 h post-dose): 1.41*
- Hydroxyindoleacetic acid (HIAA), CSF, ratio relative to baseline ([1]; 2 h post-dose): 1.28*
- 1-methyl-4-imidazoleacetate, CSF, ratio relative to baseline ([1]; 4 h post-dose): 1.52*
- Carboxyethyl-GABA, CSF, ratio relative to baseline ([1]; 4 h post-dose): 1.38*
- Homovanillate (HVA), CSF, ratio relative to baseline ([1]; 4 h post-dose): 1.56*
- Hydroxyindoleacetic acid (HIAA), CSF, ratio relative to baseline ([1]; 4 h post-dose): 1.1*
- 1-methyl-4-imidazoleacetate, CSF, ratio relative to baseline ([1]; 8 h post-dose): 1.47*
- Carboxyethyl-GABA, CSF, ratio relative to baseline ([1]; 8 h post-dose): 1.38*
- Homovanillate (HVA), CSF, ratio relative to baseline ([1]; 8 h post-dose): 1.3*
- Hydroxyindoleacetic acid (HIAA), CSF, ratio relative to baseline ([1]; 8 h post-dose): 1.22
- 1-methyl-4-imidazoleacetate, CSF, ratio relative to baseline ([1]; 12 h post-dose): 1.56*
- Carboxyethyl-GABA, CSF, ratio relative to baseline ([1]; 12 h post-dose): 1.4*
- Homovanillate (HVA), CSF, ratio relative to baseline ([1]; 12 h post-dose): 1.46*
- Hydroxyindoleacetic acid (HIAA), CSF, ratio relative to baseline ([1]; 12 h post-dose): 1.21
- 1-methyl-4-imidazoleacetate, CSF, ratio relative to baseline ([1]; 24 h post-dose): 1.33*
- Carboxyethyl-GABA, CSF, ratio relative to baseline ([1]; 24 h post-dose): 1.24*
- Homovanillate (HVA), CSF, ratio relative to baseline ([1]; 24 h post-dose): 1.34*
- Hydroxyindoleacetic acid (HIAA), CSF, ratio relative to baseline ([1]; 24 h post-dose): 1.21*
- 1-methyl-4-imidazoleacetate, CSF, ratio relative to baseline ([1]; 36 h post-dose): 1.75*
- Carboxyethyl-GABA, CSF, ratio relative to baseline ([1]; 36 h post-dose): 1.22*
- Homovanillate (HVA), CSF, ratio relative to baseline ([1]; 36 h post-dose): 1.41*
- Hydroxyindoleacetic acid (HIAA), CSF, ratio relative to baseline ([1]; 36 h post-dose): 1.28*
- accumulation between Day 1 and Day 3 ([2]; 2400 mg oral 48 hours apart): negligible accumulation
- difference in geometric mean exposure (Cmax, AUC(0-24), AUC(0-48)) between Day 1 and Day 3 ([2]; 2400 mg oral on Days 1 and 3): ≤ 5%
- time of peak concentration for the mean profile ([2]; 2400 mg oral, day 1, post-dose): 1 h
- time of highest concentration for the mean profile ([2]; 2400 mg oral, day 3, post-dose): 0.5 h
- mean plasma concentration versus time profiles on days 1 and 3 ([2]; FIG. 13): nearly superimposable
- AUC(0-24), Max [2, 3]: 416,000 h*ng/mL
- AUC(0-24), Min [2, 3]: 298,000 h*ng/mL
- AUC(0-48), Max [2, 3]: 525,000 h*ng/mL
- AUC(0-48), Min [2, 3]: 357,000 h*ng/mL
- AUClast, Max [2, 3]: 481,000 h*ng/mL
- AUClast, Min [2, 3]: 298,000 h*ng/mL
- Cmax, Max [2, 3]: 57,700 ng/mL
- Cmax, Min [2, 3]: 23,300 ng/mL
- T1/2, Max [2, 3]: 15.2 h
- T1/2, Min [2, 3]: 9.20 h
- AUC(0-24), Max [2, 4]: 449,000 h*ng/mL
- AUC(0-24), Min [2, 4]: 294,000 h*ng/mL
- AUC(0-48), Max [2, 4]: 584,000 h*ng/mL
- AUC(0-48), Min [2, 4]: 353,000 h*ng/mL
- AUClast, Max [2, 4]: 632,000 h*ng/mL
- AUClast, Min [2, 4]: 369,000 h*ng/mL
- Cmax, Max [2, 4]: 52,300 ng/mL
- Cmax, Min [2, 4]: 35,700 ng/mL
- T1/2, Max [2, 4]: 21.1 h
- T1/2, Min [2, 4]: 10.9 h
- Tmax ([2]; oral, all subjects, both dosing days (Days 1 and 3), read-out: individual Tmax values): 0.5 to 1 h
- AUC ([2]; po, healthy males, 2400 mg oral, Day 1, N 11, read-out: AUC(0-24), Geometric mean): 355 µg·h/mL
- AUC ([2]; po, healthy males, 2400 mg oral, Day 1, N 11, read-out: AUC(0-24), Mean): 358 µg·h/mL
- AUC ([2]; po, healthy males, 2400 mg oral, Day 1, N 11, read-out: AUC(0-24), Median): 366 µg·h/mL
- AUC ([2]; po, healthy males, 2400 mg oral, Day 1, N 11, read-out: AUC(0-48), Geometric mean): 438 µg·h/mL
- AUC ([2]; po, healthy males, 2400 mg oral, Day 1, N 11, read-out: AUC(0-48), Mean): 442 µg·h/mL
- AUC ([2]; po, healthy males, 2400 mg oral, Day 1, N 11, read-out: AUC(0-48), Median): 453 µg·h/mL
- AUC(0-t) ([2]; po, healthy males, 2400 mg oral, Day 1, N 11, read-out: AUClast, Geometric mean): 405 µg·h/mL
- AUC(0-t) ([2]; po, healthy males, 2400 mg oral, Day 1, N 11, read-out: AUClast, Mean): 409 µg·h/mL
- AUC(0-t) ([2]; po, healthy males, 2400 mg oral, Day 1, N 11, read-out: AUClast, Median): 422 µg·h/mL
- Cmax ([2]; po, healthy males, 2400 mg oral, Day 1, N 11, read-out: Cmax, Geometric mean): 43900 ng/mL
- Cmax ([2]; po, healthy males, 2400 mg oral, Day 1, N 11, read-out: Cmax, Mean): 45100 ng/mL
- Cmax ([2]; po, healthy males, 2400 mg oral, Day 1, N 11, read-out: Cmax, Median): 47000 ng/mL
- half-life ([2]; po, healthy males, 2400 mg oral, Day 1, N 11, read-out: T1/2, Geometric mean (converted)): 12.1 h
- half-life ([2]; po, healthy males, 2400 mg oral, Day 1, N 11, read-out: T1/2, Mean (converted)): 12.2 h
- half-life ([2]; po, healthy males, 2400 mg oral, Day 1, N 11, read-out: T1/2, Median (converted)): 12 h
- Tmax ([2]; po, healthy males, 2400 mg oral, Day 1, N 11, read-out: Tmax, Median): 1 h
- AUC ([2]; po, healthy males, 2400 mg oral, second dose, Day 3, N 11, read-out: AUC(0-24), Geometric mean): 350 µg·h/mL
- AUC ([2]; po, healthy males, 2400 mg oral, second dose, Day 3, N 11, read-out: AUC(0-24), Mean): 353 µg·h/mL
- AUC ([2]; po, healthy males, 2400 mg oral, second dose, Day 3, N 11, read-out: AUC(0-24), Median): 340 µg·h/mL
- AUC ([2]; po, healthy males, 2400 mg oral, second dose, Day 3, N 11, read-out: AUC(0-48), Geometric mean): 430 µg·h/mL
- AUC ([2]; po, healthy males, 2400 mg oral, second dose, Day 3, N 11, read-out: AUC(0-48), Mean): 436 µg·h/mL
- AUC ([2]; po, healthy males, 2400 mg oral, second dose, Day 3, N 11, read-out: AUC(0-48), Median): 428 µg·h/mL
- AUC(0-t) ([2]; po, healthy males, 2400 mg oral, second dose, Day 3, N 11, read-out: AUClast, Geometric mean): 455 µg·h/mL
- AUC(0-t) ([2]; po, healthy males, 2400 mg oral, second dose, Day 3, N 11, read-out: AUClast, Mean): 462 µg·h/mL
- AUC(0-t) ([2]; po, healthy males, 2400 mg oral, second dose, Day 3, N 11, read-out: AUClast, Median): 460 µg·h/mL
- Cmax ([2]; po, healthy males, 2400 mg oral, second dose, Day 3, N 11, read-out: Cmax, Geometric mean): 45300 ng/mL
- Cmax ([2]; po, healthy males, 2400 mg oral, second dose, Day 3, N 11, read-out: Cmax, Mean): 45600 ng/mL
- Cmax ([2]; po, healthy males, 2400 mg oral, second dose, Day 3, N 11, read-out: Cmax, Median): 47400 ng/mL
- half-life ([2]; po, healthy males, 2400 mg oral, second dose, Day 3, N 11, read-out: T1/2, Geometric mean (converted)): 15.3 h
- half-life ([2]; po, healthy males, 2400 mg oral, second dose, Day 3, N 11, read-out: T1/2, Mean (converted)): 15.6 h
- half-life ([2]; po, healthy males, 2400 mg oral, second dose, Day 3, N 11, read-out: T1/2, Median (converted)): 15.6 h
- Tmax ([2]; po, healthy males, 2400 mg oral, second dose, Day 3, N 11, read-out: Tmax, Median): 0.5 h
